Source: PMC8330742, “New benzothieno[2,3-c]pyridines as non-steroidal CYP17 inhibitors: design, synthesis, anticancer screening, apoptosis induction, and in silico ADME profile studies” (Journal of Enzyme Inhibition and Medicinal Chemistry, 2021)

What was measured:
[1] = test system: CCRF-CEM; test: NCI-60 SRB screen; assay type: cell-based; conditions: Homo sapiens, single dose 10^−5 M, Leukaemia, read-out: Growth inhibition (%)
[2] = test system: HL-60(TB); test: NCI-60 SRB screen; assay type: cell-based, human; conditions: Homo sapiens; single dose 10^−5 M; HL-60(TB), Leukaemia; read-out: Growth inhibition (%)
[3] = test system: K-562; test: NCI-60 SRB screen; assay type: cell-based, human; conditions: Homo sapiens, K562; single dose 10^−5 M; K-562, Leukaemia; read-out: Growth inhibition (%)
[4] = test system: MOLT-4; test: NCI-60 SRB screen; assay type: cell-based; conditions: Homo sapiens; single dose 10^−5 M; MOLT-4, Leukaemia; read-out: Growth inhibition (%)
[5] = test system: SR; test: NCI-60 SRB screen; assay type: cell-based; conditions: Homo sapiens, single dose 10^−5 M, Leukaemia, read-out: Growth inhibition (%)
[6] = test system: A549/ATCC; test: NCI-60 SRB screen; assay type: cell-based, human; conditions: Homo sapiens, single dose 10^−5 M, Non-small cell lung carcinoma, read-out: Growth inhibition (%)
[7] = test system: EKVX; test: NCI-60 SRB screen; assay type: cell-based, human; conditions: Homo sapiens, single dose 10^−5 M, Non-small cell lung carcinoma, read-out: Growth inhibition (%)
[8] = test system: HOP-62; test: NCI-60 SRB screen; assay type: cell-based, human; conditions: Homo sapiens; single dose 10^−5 M; HOP-62, Non-small cell lung carcinoma; read-out: Growth inhibition (%)
[9] = test system: HOP-92; test: NCI-60 SRB screen; assay type: cell-based, human; conditions: Homo sapiens; single dose 10^−5 M; HOP-92, Non-small cell lung carcinoma; read-out: Growth inhibition (%)
[10] = test system: NCI-H226; test: NCI-60 SRB screen; assay type: cell-based, human; conditions: Homo sapiens; single dose 10^−5 M; NCI-H226, Non-small cell lung carcinoma; read-out: Growth inhibition (%)
[11] = test system: NCI-H23; test: NCI-60 SRB screen; assay type: cell-based, human; conditions: Homo sapiens; single dose 10^−5 M; NCI-H23, Non-small cell lung carcinoma; read-out: Growth inhibition (%)
[12] = test system: NCI-H322M; test: NCI-60 SRB screen; assay type: cell-based, human; conditions: Homo sapiens, single dose 10^−5 M, Non-small cell lung carcinoma, read-out: Growth inhibition (%)
[13] = test system: NCI-H460; test: NCI-60 SRB screen; assay type: cell-based, human; conditions: Homo sapiens; single dose 10^−5 M; NCI-H460, Non-small cell lung carcinoma; read-out: Growth inhibition (%)
[14] = test system: NCI-H522; test: NCI-60 SRB screen; assay type: cell-based, human; conditions: Homo sapiens; single dose 10^−5 M; NCI-H522, Non-small cell lung carcinoma; read-out: Growth inhibition (%)
[15] = test system: COLO 205; test: NCI-60 SRB screen; assay type: cell-based, human; conditions: Homo sapiens; single dose 10^−5 M; COLO 205, Colon cancer; read-out: Growth inhibition (%)
[16] = test system: HCC-2998; test: NCI-60 SRB screen; assay type: cell-based, human; conditions: Homo sapiens; single dose 10^−5 M; HCC-2998, Colon cancer; read-out: Growth inhibition (%)
[17] = test system: HCT-116; test: NCI-60 SRB screen; assay type: cell-based, human; conditions: Homo sapiens; single dose 10^−5 M; HCT-116, Colon cancer; read-out: Growth inhibition (%)
[18] = test system: HCT-15; test: NCI-60 SRB screen; assay type: cell-based, human; conditions: Homo sapiens; single dose 10^−5 M; HCT-15, Colon cancer; read-out: Growth inhibition (%)
[19] = test system: KM12; test: NCI-60 SRB screen; assay type: cell-based, human; conditions: Homo sapiens; single dose 10^−5 M; KM12, Colon cancer; read-out: Growth inhibition (%)
[20] = test system: SW-620; test: NCI-60 SRB screen; assay type: cell-based; conditions: Homo sapiens; single dose 10^−5 M; SW-620, Colon cancer; read-out: Growth inhibition (%)
[21] = test system: SF-268; test: NCI-60 SRB screen; assay type: cell-based, human; conditions: Homo sapiens; single dose 10^−5 M; SF-268, CNS cancer; read-out: Growth inhibition (%)
[22] = test system: SF-295; test: NCI-60 SRB screen; assay type: cell-based, human; conditions: Homo sapiens; single dose 10^−5 M; SF-295, CNS cancer; read-out: Growth inhibition (%)
[23] = test system: LOX IMVI; test: NCI-60 SRB screen; assay type: cell-based, human; conditions: Homo sapiens, single dose 10^−5 M, Melanoma, read-out: Growth inhibition (%)
[24] = test system: M14; test: NCI-60 SRB screen; assay type: cell-based, human; conditions: Homo sapiens; single dose 10^−5 M; M14, Melanoma; read-out: Growth inhibition (%)
[25] = test system: MDA-MB-435; test: NCI-60 SRB screen; assay type: cell-based; conditions: Homo sapiens, MDA-MB-435, read-out: Growth inhibition (%)
[26] = test system: SK-MEL-2; test: NCI-60 SRB screen; assay type: cell-based, human; conditions: Homo sapiens; single dose 10^−5 M; SK-MEL-2, Melanoma; read-out: Growth inhibition (%)
[27] = test system: SK-MEL-28; test: NCI-60 SRB screen; assay type: cell-based; conditions: Homo sapiens; single dose 10^−5 M; SK-MEL-28, Melanoma; read-out: Growth inhibition (%)
[28] = test system: SK-MEL-5; test: NCI-60 SRB screen; assay type: cell-based, human; conditions: Homo sapiens; single dose 10^−5 M; SK-MEL-5, Melanoma; read-out: Growth inhibition (%)
[29] = test system: UACC-257; test: NCI-60 SRB screen; assay type: cell-based, human; conditions: Homo sapiens; single dose 10^−5 M; UACC-257, Melanoma; read-out: Growth inhibition (%)
[30] = test system: UACC-62; test: NCI-60 SRB screen; assay type: cell-based, human; conditions: Homo sapiens; single dose 10^−5 M; UACC-62, Melanoma; read-out: Growth inhibition (%)
[31] = test system: IGROV1; test: NCI-60 SRB screen; assay type: cell-based, human; conditions: Homo sapiens, IGROV-1; single dose 10^−5 M; IGROV1, Ovarian cancer; read-out: Growth inhibition (%)
[32] = test system: OVCAR-3; test: NCI-60 SRB screen; assay type: cell-based, human; conditions: Homo sapiens; single dose 10^−5 M; OVCAR-3, Ovarian cancer; read-out: Growth inhibition (%)
[33] = test system: OVCAR-4; test: NCI-60 SRB screen; assay type: cell-based, human; conditions: Homo sapiens; single dose 10^−5 M; OVCAR-4, Ovarian cancer; read-out: Growth inhibition (%)
[34] = test system: OVCAR-8; test: NCI-60 SRB screen; assay type: cell-based, human; conditions: Homo sapiens; single dose 10^−5 M; OVCAR-8, Ovarian cancer; read-out: Growth inhibition (%)
[35] = test system: NCI/ADR-RES; test: NCI-60 SRB screen; assay type: cell-based, human; conditions: Homo sapiens, single dose 10^−5 M, Ovarian cancer, read-out: Growth inhibition (%)
[36] = test system: SK-OV-3; test: NCI-60 SRB screen; assay type: cell-based, human; conditions: Homo sapiens; single dose 10^−5 M; SK-OV-3, Ovarian cancer; read-out: Growth inhibition (%)
[37] = test system: 786-0; test: NCI-60 SRB screen; assay type: cell-based; conditions: Homo sapiens; single dose 10^−5 M; 786-0, Renal cancer; read-out: Growth inhibition (%)
[38] = test system: ACHN; test: NCI-60 SRB screen; assay type: cell-based; conditions: Homo sapiens, single dose 10^−5 M, Renal cancer, read-out: Growth inhibition (%)
[39] = test system: CAKI-1; test: NCI-60 SRB screen; assay type: cell-based, human; conditions: Homo sapiens; single dose 10^−5 M; CAKI-1, Renal cancer; read-out: Growth inhibition (%)
[40] = test system: RXF 393; test: NCI-60 SRB screen; assay type: cell-based, human; conditions: Homo sapiens; single dose 10^−5 M; RXF 393, Renal cancer; read-out: Growth inhibition (%)
[41] = test system: SN12C; test: NCI-60 SRB screen; assay type: cell-based, human; conditions: Homo sapiens, SN12C; single dose 10^−5 M; SN 12 C, Renal cancer; read-out: Growth inhibition (%)
[42] = test system: TK-10; test: NCI-60 SRB screen; assay type: cell-based, human; conditions: Homo sapiens; single dose 10^−5 M; TK-10, Renal cancer; read-out: Growth inhibition (%)
[43] = test system: UO-31; test: NCI-60 SRB screen; assay type: cell-based, human; conditions: Homo sapiens; single dose 10^−5 M; UO-31, Renal cancer; read-out: Growth inhibition (%)
[44] = test system: panel of 60 cancer cell lines; test: NCI-60 SRB screen, mean or range over the panel; assay type: cell-based, human; conditions: Homo sapiens; mean over the cell lines; single dose 10^−5 M; read-out: Mean growth inhibition (%)

`O=[N+]([O-])c1cccc(C2NC(N3CCCCC3)=C(Cl)c3c2sc2c(F)cccc32)c1` (centres unmarked) [Compound 8c, 4-Chloro-3-(piperidin-1-yl)-8-fluoro-1-(3-nitrophenyl)-1,2-dihydro [1]benzothieno[2,3-c]pyridine] showed an inhibition at 10 µM [1] of 30.3%, an inhibition at 10 µM [2] of 18.7% and an inhibition at 10 µM [3] of 14.1%. For the same molecule, the inhibition at 10 µM [4] was 35.6%, the inhibition at 10 µM [5] was 10.1% and the inhibition at 10 µM [6] was 5.05%. It also gave an inhibition at 10 µM [7] of 19.1%, an inhibition at 10 µM [8] of 5.22% and an inhibition at 10 µM [9] of 9.27%. It also gave an inhibition at 10 µM [10] of 28.2%, an inhibition at 10 µM [11] of 3.42% and an inhibition at 10 µM [12] of -0.59%. It also gave an inhibition at 10 µM [13] of 3%, an inhibition at 10 µM [14] of 17.7% and an inhibition at 10 µM [15] of -12.7%. It also gave an inhibition at 10 µM [16] of -6.85%, an inhibition at 10 µM [17] of 1.95% and an inhibition at 10 µM [18] of 3.84%. For the same molecule, the inhibition at 10 µM [19] was 3.41%, the inhibition at 10 µM [20] was 1.71% and the inhibition at 10 µM [21] was 6.19%. It also gave an inhibition at 10 µM [22] of -6.6%, an inhibition at 10 µM [23] of -0.7% and an inhibition at 10 µM [24] of 1.39%. It also gave an inhibition at 10 µM [25] of 2%, an inhibition at 10 µM [26] of 2.66% and an inhibition at 10 µM [27] of -16.7%. For the same molecule, the inhibition at 10 µM [28] was 0.27%, the inhibition at 10 µM [29] was -10.3% and the inhibition at 10 µM [30] was 8.57%. It also gave an inhibition at 10 µM [31] of 17.4%, an inhibition at 10 µM [32] of -1.68% and an inhibition at 10 µM [33] of 12.3%. The inhibition at 10 µM [34] was -6.18%, the inhibition at 10 µM [35] was -2.62% and the inhibition at 10 µM [36] was 9.9%. For the same molecule, the inhibition at 10 µM [37] was -0.24%, the inhibition at 10 µM [38] was 6.2% and the inhibition at 10 µM [39] was 18.8%. It also gave an inhibition at 10 µM [40] of -15.6%, an inhibition at 10 µM [41] of 3.66% and an inhibition at 10 µM [42] of -22.4%. For the same molecule, the inhibition at 10 µM [43] was 38% and the inhibition at 10 µM [44] was 7.22%.
